From US7291612B2, “Immunomodulatory compounds” (Active Biotech A.B., priority 2002, dated 2007)
Counter-ions that a name gives are not always drawn. Like-named read-outs stand apart in the source and are kept apart here.

Biological target: T1, CD80-CD28 interaction (Homo sapiens, UniProt P33681)
T1 construct: mouse Fab fragment (fusion partner)
T1 sequence (P33681 35-242 limits assumed): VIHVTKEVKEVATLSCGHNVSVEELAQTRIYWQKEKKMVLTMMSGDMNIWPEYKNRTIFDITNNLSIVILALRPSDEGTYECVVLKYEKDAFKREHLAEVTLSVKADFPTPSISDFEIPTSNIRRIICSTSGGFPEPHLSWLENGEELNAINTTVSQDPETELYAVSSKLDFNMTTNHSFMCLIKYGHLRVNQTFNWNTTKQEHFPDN
Assay: cell free Homogenous Time Resolved Fluorescence (HTRF) assay, inhibition of the CD80-CD28 interaction
Assay type: binding
Description: The examples described above were tested in a cell free Homogenous Time Resolved Fluorescence (HTRF) assay to determine their activity as inhibitors of the CD80-CD28 interaction.
In the assay, europium and allophycocyanin (APC) are associated with CD28 and CD80 indirectly (through antibody linkers) to form a complex, which brings the europium and APC into close proximity to generate a signal. The complex comprises the following six proteins: fluorescent label 1, linker antibody 1, CD28 fusion protein, CD80 fusion protein, linker antibody 2, and fluorescent label 2. The table below describes these reagents in greater detail.
On formation of the complex, europium and APC are brought into proximity and a signal is generated.
Non-specific interaction was measured by substituting a mouse Fab fragment (C215) for the CD80 mouse Fab fragment fusion protein (1.9 μg/ml). The assay was carried out in black 384 well plates in a final volume of 30 μl. Assay buffer: 50 mM Tris-HCl, 150 mM NaCl pH7.8, containing 0.1% BSA (w/v) added just prior to use.
Compounds were added to the above reagents in a concentration series ranging between 100 μM-1.7 nM. The reaction was incubated for 4 hours at room temperature. Dual measurements were made using a Wallac Victor 1420 Multilabel Counter. First measurement: excitation 340 nm, emission 665 nm, delay 50 μs, window time 200 μs. second measurement: excitation 340 nm, emission 615 nm, delay 50 μs, window time 200 μs. Counts were automatically corrected for fluorescence crossover, quenching and background.

[1] = 4 hours at room temperature, read-out: Activity (EC50 in summary form)

Compound	EC50 [1] [nM]	EC50 (read-out: EC50) [nM]
CCNC(=O)c1cccc(-n2nc3c4cccc(F)c4[nH]cc-3c2=O)c1 [Example 51, N-Ethyl-3-(6-fluoro-3-oxo-3,5-dihydro-pyrazolo[4,3-c]-quinolin-2-yl)-benzamide]	1000 to 10000	–
O=C(NCc1ccccc1)c1cccc(-n2nc3c4cccc(F)c4[nH]cc-3c2=O)c1 [Example 52, N-Benzyl-3-(6-fluoro-3-oxo-3,5-dihydro-pyrazolo[4,3-c]-quinolin-2-yl)-benzamide]	> 10000	–
CN(C)CCCN(C)C(=O)c1cccc(-n2nc3c4cccc(F)c4[nH]cc-3c2=O)c1 [Example 53]	> 10000	–
CN(C)CCCNC(=O)c1cccc(-n2nc3c4cccc(F)c4[nH]cc-3c2=O)c1 [Example 54]	1000 to 10000	–
N[C@H]1CC[C@H](NC(=O)c2cccc(-n3nc4c5cccc(F)c5[nH]cc-4c3=O)c2)CC1 [Example 55]	> 10000	–
O=C(NCCCN1CCCC1)c1cccc(-n2nc3c4cccc(F)c4[nH]cc-3c2=O)c1 [Example 56]	> 10000	–
O=C(NCCCCN1CCCC1)c1cccc(-n2nc3c4cccc(F)c4[nH]cc-3c2=O)c1 [Example 57]	1000 to 10000	–
CN(C)CCCCNC(=O)c1cccc(-n2nc3c4cccc(F)c4[nH]cc-3c2=O)c1 [Example 58]	1000 to 10000	–
COCCNC(=O)c1cccc(-n2nc3c4cccc(F)c4[nH]cc-3c2=O)c1 [Example 59]	1000 to 10000	–
CCN(CC)C(=O)c1cccc(-n2nc3c4cccc(F)c4[nH]cc-3c2=O)c1 [Example 60]	> 10000	–
COC(=O)CNC(=O)c1cccc(-n2nc3c4cccc(F)c4[nH]cc-3c2=O)c1 [Example 61]	> 10000	–
C#CCNC(=O)c1cccc(-n2nc3c4cccc(F)c4[nH]cc-3c2=O)c1 [Example 62]	1000 to 10000	–
CN(Cc1ccccc1)C(=O)c1cccc(-n2nc3c4cccc(F)c4[nH]cc-3c2=O)c1 [Example 63]	1000 to 10000	–
CCOC(=O)C1CCN(C(=O)c2cccc(-n3nc4c5cccc(F)c5[nH]cc-4c3=O)c2)CC1 [Example 64]	> 10000	–
CN(C)CCCNC(=O)c1ccc(-n2nc3c4ccccc4[nH]c(C4CC4)c-3c2=O)cc1 [Example 65, N-(3-Dimethylaminopropyl)-4-(4-cyclopropyl-3-oxo-3,5-dihydro-pyrazolo[4,3-c]quinolin-2-yl]-benzamide]	< 1000	–
CN(C)CCCNC(=O)c1ccc(-n2nc3c4cccc(F)c4[nH]cc-3c2=O)cc1 [Example 66, N-(3-Dimethylaminopropyl)-4-(6-fluoro-3-oxo-3,5-dihydro-pyrazolo[4,3-c]quinolin-2-yl]-benzamide hydrochloride]	< 1000	–

Compound	EC50 [1] [nM]	EC50 (read-out: EC50) [nM]
O=C(c1ccc(-n2nc3c4cccc(F)c4[nH]cc-3c2=O)cc1)N1CCCCC1 [Example 67]	1000 to 10000	–
O=C(NCc1ccccc1)c1ccc(-n2nc3c4cccc(F)c4[nH]cc-3c2=O)cc1 [Example 68]	< 1000	–
CN(Cc1ccccc1)C(=O)c1ccc(-n2nc3c4cccc(F)c4[nH]cc-3c2=O)cc1 [Example 69]	1000 to 10000	–
COCCNC(=O)c1ccc(-n2nc3c4cccc(F)c4[nH]cc-3c2=O)cc1 [Example 70]	< 1000	–
CN(C)CCNC(=O)c1ccc(-n2nc3c4cccc(F)c4[nH]cc-3c2=O)cc1 [Example 71]	< 1000	–
COC(=O)CNC(=O)c1ccc(-n2nc3c4cccc(F)c4[nH]cc-3c2=O)cc1 [Example 72]	< 1000	–
COCCCNC(=O)c1ccc(-n2nc3c4cccc(F)c4[nH]cc-3c2=O)cc1 [Example 73]	< 1000	–
O=C(NCCC1=CCCCC1)c1ccc(-n2nc3c4cccc(F)c4[nH]cc-3c2=O)cc1 [Example 75]	1000 to 10000	–
O=C(NCC1CCCCC1)c1ccc(-n2nc3c4cccc(F)c4[nH]cc-3c2=O)cc1 [Example 76]	1000 to 10000	–
CCNC(=O)c1ccc(-n2nc3c4cccc(F)c4[nH]cc-3c2=O)cc1 [Example 77]	< 1000	–
CCN(CC)C(=O)c1ccc(-n2nc3c4cccc(F)c4[nH]cc-3c2=O)cc1 [Example 78]	1000 to 10000	–
N[C@H]1CC[C@H](NC(=O)c2ccc(-n3nc4c5cccc(F)c5[nH]cc-4c3=O)cc2)CC1 [Example 79]	< 1000	–
CN(C)CCCN(C)C(=O)c1ccc(-n2nc3c4cccc(F)c4[nH]cc-3c2=O)cc1 [Example 80]	< 1000	–
CN(C)CCCCNC(=O)c1ccc(-n2nc3c4cccc(F)c4[nH]cc-3c2=O)cc1 [Example 81]	< 1000	–
O=C(NCCCCN1CCCC1)c1ccc(-n2nc3c4cccc(F)c4[nH]cc-3c2=O)cc1 [Example 82]	< 1000	–
O=C(NCCCN1CCCC1)c1ccc(-n2nc3c4cccc(F)c4[nH]cc-3c2=O)cc1 [Example 83]	< 1000	90
